Test results from PubChem BioAssay AID504520 (The Scripps Research Institute Molecular Screening Center, 2011).
Active and inactive are the calls of the source. The rule behind the calls is not given here.

Assays:
Experiment in all cases: LYPLA1 inhibition and serine hydrolase selectivity, late-stage follow-up, fluorescence, gel-based ABPP, mouse proteome (AID 504520);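 note: soluble proteome from BW5147 murine T cells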
Details in all cases: FP-rhodamine fluorescence, stronger effect = higher value
ABHD11 = test system: ABHD11
ESD = test system: ESD
LYPLA1 = test system: LYPLA1
LYPLA2 = test system: LYPLA2
[1] = molecular target: Platelet-activating factor acetylhydrolase 2, cytoplasmic (Mus musculus) (UniProt Q8VDG7)
Platelet-activating factor acetylhydrolase 2, cytoplasmic (Mus musculus), sequence (Q8VDG7 whole entry, looked up): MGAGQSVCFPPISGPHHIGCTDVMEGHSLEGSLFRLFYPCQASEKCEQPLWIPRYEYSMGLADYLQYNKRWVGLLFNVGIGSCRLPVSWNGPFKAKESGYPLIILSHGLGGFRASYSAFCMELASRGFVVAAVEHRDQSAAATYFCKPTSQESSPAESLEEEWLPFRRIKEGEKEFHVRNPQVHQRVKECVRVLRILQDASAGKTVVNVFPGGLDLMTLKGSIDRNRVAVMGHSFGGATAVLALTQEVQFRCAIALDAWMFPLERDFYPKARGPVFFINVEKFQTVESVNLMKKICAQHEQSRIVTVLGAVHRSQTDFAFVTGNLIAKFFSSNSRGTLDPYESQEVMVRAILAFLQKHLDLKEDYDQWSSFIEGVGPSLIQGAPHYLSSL

| SMILES | inhibition (ABHD11; at 0.75 µM) | inhibition (ABHD11; inhibition, at 0.03 µM) [%] | inhibition (ABHD11; inhibition, at 0.15 µM) [%] | inhibition (ESD; at 0.75 µM) | inhibition (ESD; inhibition, at 0.03 µM) [%] | inhibition (ESD; inhibition, at 0.15 µM) [%] | inhibition (LYPLA1; at 0.75 µM) | inhibition (LYPLA1; inhibition, at 0.03 µM) [%] | inhibition (LYPLA1; inhibition, at 0.15 µM) [%] | inhibition (LYPLA2; at 0.75 µM) | inhibition (LYPLA2; inhibition, at 0.03 µM) [%] | inhibition (LYPLA2; inhibition, at 0.15 µM) [%] | inhibition ([1]; PAFAH2, at 0.75 µM) | inhibition ([1]; PAFAH2, inhibition, at 0.03 µM) [%] | inhibition ([1]; PAFAH2, inhibition, at 0.15 µM) [%] |
| --- | --- | --- | --- | --- | --- | --- | --- | --- | --- | --- | --- | --- | --- | --- | --- |
| O=C(N1CCCCC1)n1ncc(C(O)(c2ccccc2)c2ccccc2)n1 | 100% | 100 | 100 | 25% (inactive) | 0 | 0 | 100% | 50 | 100 | 0% (inactive) | 0 | 0 | 0% (inactive) | 0 | 0 |
| O=C(N1CCCCC1)n1ncc(C(O)c2ccccc2)n1 (stereo not given) | 100% | 75 | 100 | 0% (inactive) | 0 | 0 | 100% | 50 | 50 | 0% (inactive) | 0 | 0 | 0% (inactive) | 0 | 0 |
| COc1ccc2cc(-c3cnn(C(=O)N(c4ccccc4)c4ccccc4)n3)ccc2c1 | 25% (inactive) | 0 | 0 | 0% (inactive) | 0 | 0 | 0% (inactive) | 0 | 0 | 0% (inactive) | 0 | 0 | 50% (inactive) | 0 | 0 |
| CN(C(=O)n1ncc(C(O)(c2ccccc2)c2ccccc2)n1)c1ccccc1 | 75% (inactive) | 0 | 0 | 0% (inactive) | 0 | 0 | 0% (inactive) | 0 | 0 | 0% (inactive) | 0 | 0 | 25% (inactive) | 0 | 0 |
| O=C(N(c1ccccc1)c1cccc(Br)c1)n1ncc(C(O)(c2ccccc2)c2ccccc2)n1 | 100% | 0 | 100 | 0% (inactive) | 0 | 0 | 0% (inactive) | 0 | 0 | 0% (inactive) | 0 | 0 | 0% (inactive) | 0 | 0 |
| O=C(N1CCCC(Cc2ccccc2)C1)n1cc(C(O)(c2ccccc2)c2ccccc2)nn1 (stereo not given) | 100% | 100 | 100 | 0% (inactive) | 0 | 0 | 100% | 0 | 50 | 25% (inactive) | 0 | 0 | 0% (inactive) | 0 | 0 |
| O=C(N1CCc2ccccc2C1)n1ncc(C(O)(c2ccccc2)c2ccccc2)n1 | 100% | 100 | 100 | 25% (inactive) | 0 | 10 | 50% (inactive) | 0 | 0 | 0% (inactive) | 0 | 0 | 100% | 0 | 100 |
